According to paper PMC10574883, “Harnessing the Bioactive Potential of Limonium spathulatum (Desf.) Kuntze: Insights into Enzyme Inhibition and Phytochemical Profile” (Plants, 2023):

Biological target: T1, tyrosinase from mushroom
T1 construct: gene PPO3; commercial native mushroom enzyme (Fischer Scientific)
Assay: tyrosinase inhibition assay
Type: biochemical
Details: positive control; anomer of arbutin not stated
Excerpt: tyrosinase inhibition assay on tyrosinase from mushroom

**Q.** For `OC[C@H]1O[C@@H](Oc2ccc(O)cc2)[C@H](O)[C@@H](O)[C@@H]1O` [Arbutin], which Tyrosinase is on record?
**A.** The Tyrosinase was 0.17 ± 0.01 mg/mL.
